Here are results for eleven compounds from publication PMC5516711 (Evidence-based Complementary and Alternative Medicine : eCAM, 2017).

A short description of data set [1]: Pharmacokinetic study in rats after oral administration of Naoxintong capsule (NXTC), plasma levels by HPLC-MS/MS. To be noted: for Detection in rat plasma after oral administration of NXTC: doses of 0.5 g kg^−1 and 1.5 g kg^−1, at the present LLOQ level; for AUC(0-t) / Cmax / Tmax / AUC(0-inf) / MRT inf / MRT last / half-life: male, Sprague-Dawley, rat, plasma, po.
Description: (§1) The LC-MS/MS analysis was carried out on an Agilent 1200 system (Agilent Corporation, USA) coupled with an API 3200 triple quadrupole mass spectrometer with a Turbo Ion Spray Ionization (ESI) source (Concord, Ontario, Canada). The Agilent 1200 system consisted of a vacuum degasser (G1322A), a binary pump (G1312A), and a Hip-ALS autosampler (G13678). Chromatographic separation was performed on an Eclipse plus C18 column (4.6 × 100 mm, 1.8 μm) with a security guard C18 column (2.1 mm × 12.5 mm, 5 μm) (Agilent, USA). The mobile phases consisted of acetonitrile (A) and formic acid aqueous solution (B). The linear gradient was 30% A-30% A (0–10 min); 30%–80% A (10–15 min); 80%–95% A (15–20 min); 95%-95% A (20–30 min). Reequilibration time after gradient elution was 5 min. The column temperature was maintained at 25°C and the flow rate was set at 0.300 mL min^−1. ESI-MS spectra were acquired in both negative and positive ion multiple reaction monitoring (MRM) mode. Data collection and peak calculations were performed by Analyst 1.4.2 software (AB MDS Sciex).
(§2) The ISs solution (10 μL) and formic acid (10 μL) were added to plasma samples (100 μL). Acetonitrile (370 μL) was used to precipitate protein. The mixed solution was swirled for 1 min and then centrifuged at 14000 rpm for 10 min. The supernatant fluid was collected and then evaporated to dryness with a stream of N2 gas in a 40°C water bath. The residue was reconstituted in 100 μL methanol, swirled for 1 min. The sample was centrifuged at 14000 rpm for 10 min. 10 μL of the supernatant was injected into the LC-MS/MS system for analysis.
(§3) Rats were fasted for 12 h with free access to water before the experiment. NXTC extracts were orally administrated to ten rats at single time dose (0.5 g kg^−1) and to ten rats at triple doses (1.5 g kg^−1). The blood samples were collected at 5, 10, 15, 30, 45, 60, 90, 120, 240, 480, 720, and 1440 min after oral administration. Blood samples (200 μL) were collected from the vein of the eye sockets into heparinized tubes after the rats were anesthetized with ethyl ether. The samples were immediately centrifuged at 7,000 rpm, 10°C for 10 min. Then the plasma samples obtained were stored at −20°C.
(§4) Some pharmacokinetic parameters were calculated by DAS1.0 software (Drug and Statistics 1.0, Medical College of Wannan, China). An appropriate model was employed to calculate the following parameters: area under the plasma concentration versus time curve from zero to last sampling time (AUC0→24 h) and infinity (AUC0→∞) and mean retention time from zero to last sampling time (MRT0→24 h). […] All data were shown as average value ± standard deviation.

For data set [2] the following is noted: rat, in vivo, po; cited from earlier work.
The conditions of data set [3]: in vivo.
Description: as §1, §2, §3, §4

One may read the AUC(0-t) as the area under the concentration-time curve up to a stated or last time point. Read a high AUC(0-t) as high exposure. A word on the Cmax: it is the maximum level reached in the sampled fluid or tissue. For orientation: Tmax means the time at which the peak concentration occurs. The AUC(0-inf) is total exposure, with the tail of the curve extrapolated. A lower AUC(0-inf) goes with less exposure. For orientation: MRT inf means a mean duration of stay, worked out from the concentration-time curve. A word on the MRT last: it is a mean duration of stay, worked out from the concentration-time curve. The term half-life denotes how long it takes for the measured level to halve.

Read-outs that look alike come from different tables or passages of the source.

For the compound `CC(C)(O)[C@@H]1CC[C@](C)([C@H]2[C@@H](O)C[C@@]3(C)[C@@H]4C[C@H](O[C@@H]5O[C@H](CO)[C@@H](O)[C@H](O)[C@H]5O)[C@H]5C(C)(C)[C@@H](O[C@@H]6OC[C@@H](O)[C@H](O)[C@H]6O)CC[C@@]56C[C@@]46CC[C@]23C)O1` [Astragaloside IV, astragaloside IV], the “Detection in rat plasma after oral administration of NXTC” value (“Detection in rat plasma” for short) in data set [1] was “not detected”.

Consider `OC[C@H]1O[C@@H](Oc2cc(O)cc(/C=C/c3ccc(O[C@@H]4O[C@H](CO)[C@@H](O)[C@H](O)[C@H]4O)cc3O)c2)[C@H](O)[C@@H](O)[C@@H]1O` [Mulberroside A, mulberroside A], for which the “Detection in rat plasma” value in data set [1] was “not detected”.

Turning to `COc1ccc(-c2coc3cc(O)ccc3c2=O)cc1` [Formononetin, formononetin], in data set [1], the “Detection in rat plasma” value is “could be detected”, the AUC(0-t) is under 1 ng·h/mL, the Cmax is under 1 ng/mL and the Tmax was under 1 h. In data set [1] (0.5 g/kg), this compound displayed an AUC(0-inf) of 0.15 ± 0.09 ng·h/mL, an AUC(0-t) of 0.08 ± 0.05 ng·h/mL, a Cmax of 0.11 ± 0.05 ng/mL and an MRT inf of 1.67 ± 1.53 h. In data set [1] (0.5 g/kg), the MRT last worked out at 0.56 ± 0.23 h, the Tmax came to 0.49 ± 0.33 h and the half-life is 2.96 ± 5.61 h. In data set [1] (1.5 g/kg), this compound gave an AUC(0-inf) of 3.06 ± 3.07 ng·h/mL, an AUC(0-t) of 1.47 ± 1.82 ng·h/mL, a Cmax of 0.37 ± 0.32 ng/mL and an MRT inf of 25.9 ± 31.8 h. In data set [1] (1.5 g/kg), the MRT last came out at 5.16 ± 3.68 h, the Tmax was determined as 0.38 ± 0.25 h and the half-life was 1.42 ± 0.69 h.

Turning to `O=C(O)/C=C/c1ccc(O)c(O)c1` [Caffeic acid, caffeic acid], the Tmax in data set [1] was under 1 h. In data set [1] (0.5 g/kg), this compound came in with a total exposure AUC(0-inf) of 19.6 ± 21.1 ng·h/mL, an AUC(0-t) of 11.7 ± 9.6 ng·h/mL, a Cmax of 9.8 ± 4.4 ng/mL and an MRT inf of 4.02 ± 4.96 h. Moreover, in data set [1] (0.5 g/kg), the MRT last worked out at 1.33 ± 1.19 h, the Tmax stood at 0.18 ± 0.03 h and the half-life was 0.83 ± 0.33 h. In data set [1] (1.5 g/kg), this compound registered an AUC(0-inf) of 28.5 ± 20 ng·h/mL, an AUC(0-t) of 26 ± 18.6 ng·h/mL, a Cmax of 15.2 ± 3.08 ng/mL and an MRT inf of 2.72 ± 1.82 h. For the same compound, in data set [1] (1.5 g/kg), the MRT last amounted to 2.03 ± 1.43 h, the Tmax turned out to be 0.2 ± 0.04 h and the half-life is 0.7 ± 0.35 h.

On to `N#C[C@H](O[C@@H]1O[C@H](CO[C@@H]2O[C@H](CO)[C@@H](O)[C@H](O)[C@H]2O)[C@@H](O)[C@H](O)[C@H]1O)c1ccccc1` [Amygdalin, amygdalin], for which the “Detection in rat plasma” value in data set [1] is on record as “not detected”.

Turning to `C[C@H]1COC2=C1C(=O)C(=O)c1c2ccc2c1CCCC2(C)C` [Cryptotanshinone, cryptotanshinone], the “Detection in rat plasma” value in data set [1] is given as “could be detected”. In data set [1] (0.5 g/kg), this compound showed an AUC(0-inf) of 4.72 ± 5.99 ng·h/mL, an AUC(0-t) of 1.49 ± 0.76 ng·h/mL, a Cmax of 0.61 ± 0.23 ng/mL and an MRT inf of 20.7 ± 27.7 h. Besides, in data set [1] (0.5 g/kg), the MRT last came to 3.06 ± 1.47 h, the Tmax was determined as 0.51 ± 0.4 h and the half-life was 2.93 ± 3.89 h. The same compound gave a half-life in data set [1] (1.5 g kg^−1) of 17.8 ± 17.1 h. In data set [1] (1.5 g/kg), this compound registered an AUC(0-inf) of 55.2 ± 59.8 ng·h/mL, an AUC(0-t) of 24.8 ± 27.9 ng·h/mL, a Cmax of 2.78 ± 2.52 ng/mL and an MRT inf of 19 ± 17.5 h. In addition, in data set [1] (1.5 g/kg), the MRT last worked out at 7.37 ± 3.95 h, the Tmax amounted to 0.6 ± 0.2 h and the half-life is 17.8 ± 17.1 h.

For the compound `CC(C)(O)CC[C@@H](O)[C@](C)(O)[C@H]1CC[C@@]2(O)C3=CC(=O)[C@@H]4C[C@@H](O)[C@@H](O)C[C@]4(C)[C@H]3CC[C@]12C` [Ecdysterone, ecdysterone], the “Detection in rat plasma” value in data set [1] is recorded as “not detected”.

`C[C@@]12C[C@@]3(O)O[C@@H](O1)[C@]1(COC(=O)c4ccccc4)[C@H]3C[C@@]12O[C@@H]1O[C@H](CO)[C@@H](O)[C@H](O)[C@H]1O` [Paeoniflorin, paeoniflorin]: in data set [1], the “Detection in rat plasma” value is on record as “not detected”.

As to `COc1cc(/C=C/C(=O)O)ccc1O` [Ferulic acid, ferulic acid], in data set [2], the “mean Tmax” value was 1.8 min. Besides, the “Detection in rat plasma” value in data set [3] is “could be detected”. Moreover, in data set [3] (rat, po), the Cmax was determined as 12.07 ± 4.61 ng/mL and the Tmax result is reported as “less than 1 h”. In data set [3] (rat, po, 0.5 g/kg), the “AUC(0–24 h)” value is recorded as 3.20 ± 1.55 ng/mL∗h, the “AUC(0–∞)” value worked out at 4.19 ± 2.30 ng/mL∗h, the C max was 10.93 ± 4.67 ng/mL and the “MRT(0–24 h)” value is 0.28 ± 0.10 h. Also, in data set [3] (rat, po, 0.5 g/kg), the “MRT(0–∞)” value amounted to 0.48 ± 0.33 h, the “T 1/2” value is reported as 0.20 ± 0.19 h and the T max is recorded as 0.17 ± 0.00 h. In addition, in data set [3] (rat, po, 1.5 g/kg), the “AUC(0–24 h)” value is reported as 8.33 ± 3.87 ng/mL∗h, the “AUC(0–∞)” value was found to be 14.4 ± 12.8 ng/mL∗h, the C max stood at 12.07 ± 4.61 ng/mL and the “MRT(0–24 h)” value is listed as 0.81 ± 0.38 h. In addition, in data set [3] (rat, po, 1.5 g/kg), the “MRT(0–∞)” value is 3.80 ± 6.11 h, the “T 1/2” value is on record as 0.42 ± 0.15 h and the T max was found to be 0.19 ± 0.04 h.

Consider `Cc1coc2c1C(=O)C(=O)c1c-2ccc2c1CCCC2(C)C` [Tanshinone IIA, tanshinone IIA], for which the “Detection in rat plasma” value in data set [1] is “could be detected”. In data set [1] (0.5 g/kg), the total exposure AUC(0-inf) was 27.7 ± 36.2 ng·h/mL, the AUC(0-t) was determined as 8.15 ± 4.85 ng·h/mL, the Cmax was 1.61 ± 1.11 ng/mL and the MRT inf is 26.8 ± 31.5 h. For the same compound, in data set [1] (0.5 g/kg), the MRT last is 5.48 ± 1.66 h, the Tmax worked out at 0.54 ± 0.29 h and the half-life was 11.4 ± 15.8 h. In data set [1] (1.5 g/kg), the AUC(0-inf) turned out to be 83 ± 81 ng·h/mL, the AUC(0-t) was 35.4 ± 42.2 ng·h/mL, the Cmax came out at 4.18 ± 3.34 ng/mL and the MRT inf stood at 27.2 ± 20.6 h. Also, in data set [1] (1.5 g/kg), the MRT last worked out at 5.75 ± 3.36 h, the Tmax was determined as 3.17 ± 3.75 h and the half-life is 13.2 ± 10.4 h.

For salvianolic acid B, the “Detection in rat plasma” value in data set [1] is reported as “not detected”.
